From paper PMC3412845, “Waking Action of Ursodeoxycholic Acid (UDCA) Involves Histamine and GABAA Receptor Block” (PLoS ONE, 2012)

Tests used:
β3γ2L GABAA receptors = biological target: T1, β3γ2L GABAA receptors (UniProt P22723+P28472); assay: Patch-clamp of recombinant β3γ2L receptors in HEK293 cells, histamine-evoked currents; assay type: cell-based, human β3, mouse γ2L; settings: histamine 5 mM
T1 construct: expressed in transfected cells; host or cells: HEK293
Experimental: (§1) HEK 293 cells were obtained from DSM (Deutsche Sammlung von Mikroorganismen und Zellkulturen GmbH, DSM, Braunschweig). They were grown and maintained according to published standard protocols. Briefly, cells were grown in minimal essential medium supplemented with 10% fetal bovine serum, 100units/ml penicillin and streptomycin and 2 mM L-glutamine and splitted once per week. Semiconfluent cells were transfected on the third day after splitting with the help of Lipofectamine 2000 (Invitrogen), recordings were done 48–72 hrs after transfection.
(§2) The GABAAR subunit cDNAs, generously donated by G.Gisselmann (rat α1, mouse γ2L, rat β1, β2 and human β3 [26]) and J.H. Steinbach (rat α1V256S [28] and rat α1Q241L [44]), were subcloned into pcDNA3 (Invitrogen, Karlsruhe, Germany) and applied in a ratio 1∶1∶1 for the α1βxγ2L receptor and 1∶1 for α1β3 or β3γ2L receptors. […] For each receptor type patch clamp recordings were obtained from at least three separate transfections. Whole-cell patch clamp recordings were done in a similar extracellular solution as for the native cells (see above) except that the concentration of MgCl2 was reduced to 1.2 mM. Intracellular electrodes contained 140 mM CsCl (instead of KCl), pH adjusted with CsOH. The voltage was held at −40 mV.

[1] = set-up: method as in PMID 22356133; settings: cited from earlier work
α1β1γ2L GABAA receptors = biological target: T2, α1β1γ2L GABAA receptors (UniProt P15431+P22723+P62813); assay: Patch-clamp of recombinant α1β1γ2L GABAAR in HEK293 cells; assay type: cell-based, rat α1, rat β1, mouse γ2L
T2 construct: expressed in transfected cells; host or cells: HEK293
T2 sequence (P62813 28-455): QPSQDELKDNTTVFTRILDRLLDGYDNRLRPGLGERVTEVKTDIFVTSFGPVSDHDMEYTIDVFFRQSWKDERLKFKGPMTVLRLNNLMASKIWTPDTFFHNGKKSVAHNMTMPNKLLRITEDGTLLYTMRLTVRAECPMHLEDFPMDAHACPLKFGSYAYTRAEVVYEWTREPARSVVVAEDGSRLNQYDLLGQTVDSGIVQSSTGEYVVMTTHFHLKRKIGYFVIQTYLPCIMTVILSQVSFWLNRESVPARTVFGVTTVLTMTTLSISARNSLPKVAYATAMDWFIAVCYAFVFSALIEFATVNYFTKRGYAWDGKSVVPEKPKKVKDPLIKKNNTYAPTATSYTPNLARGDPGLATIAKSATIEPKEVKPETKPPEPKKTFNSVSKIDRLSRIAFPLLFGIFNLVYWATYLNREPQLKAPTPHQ
T2 sequence (P15431 26-474): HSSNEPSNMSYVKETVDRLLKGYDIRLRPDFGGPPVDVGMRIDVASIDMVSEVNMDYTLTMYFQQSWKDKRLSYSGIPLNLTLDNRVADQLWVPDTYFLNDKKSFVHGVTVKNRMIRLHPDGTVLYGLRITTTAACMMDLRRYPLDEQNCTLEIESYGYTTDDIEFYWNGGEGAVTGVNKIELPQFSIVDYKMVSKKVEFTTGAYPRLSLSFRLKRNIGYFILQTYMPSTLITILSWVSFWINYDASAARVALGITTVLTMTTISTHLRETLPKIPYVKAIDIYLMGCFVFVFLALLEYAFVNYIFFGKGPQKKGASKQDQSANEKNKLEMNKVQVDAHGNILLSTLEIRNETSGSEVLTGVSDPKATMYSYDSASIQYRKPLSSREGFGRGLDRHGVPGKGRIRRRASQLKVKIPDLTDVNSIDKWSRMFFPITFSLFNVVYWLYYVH
T2 sequence (P22723 39-474): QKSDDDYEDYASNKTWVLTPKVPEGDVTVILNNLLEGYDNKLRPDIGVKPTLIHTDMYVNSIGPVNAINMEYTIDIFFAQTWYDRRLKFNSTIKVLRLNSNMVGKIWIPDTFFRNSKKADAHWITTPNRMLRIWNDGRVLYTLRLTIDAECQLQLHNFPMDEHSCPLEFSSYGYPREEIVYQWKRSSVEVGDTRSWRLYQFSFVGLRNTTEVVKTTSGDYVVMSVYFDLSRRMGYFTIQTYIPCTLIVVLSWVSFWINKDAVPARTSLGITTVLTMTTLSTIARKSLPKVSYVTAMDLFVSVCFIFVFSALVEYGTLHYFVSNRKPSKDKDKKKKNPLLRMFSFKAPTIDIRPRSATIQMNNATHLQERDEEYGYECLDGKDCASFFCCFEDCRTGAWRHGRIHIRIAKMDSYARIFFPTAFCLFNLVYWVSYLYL
Experimental: as §1, §2

α1β3 GABAA receptors = biological target: T3, α1β3 GABAA receptors (UniProt P28472+P62813); assay: Patch-clamp of recombinant α1β3 GABAAR in HEK293 cells; assay type: cell-based, rat α1, human β3
T3 construct: expressed in transfected cells; host or cells: HEK293
T3 sequence (P62813 28-455): as the sequence (P62813 28-455) above
T3 sequence (P28472 26-473): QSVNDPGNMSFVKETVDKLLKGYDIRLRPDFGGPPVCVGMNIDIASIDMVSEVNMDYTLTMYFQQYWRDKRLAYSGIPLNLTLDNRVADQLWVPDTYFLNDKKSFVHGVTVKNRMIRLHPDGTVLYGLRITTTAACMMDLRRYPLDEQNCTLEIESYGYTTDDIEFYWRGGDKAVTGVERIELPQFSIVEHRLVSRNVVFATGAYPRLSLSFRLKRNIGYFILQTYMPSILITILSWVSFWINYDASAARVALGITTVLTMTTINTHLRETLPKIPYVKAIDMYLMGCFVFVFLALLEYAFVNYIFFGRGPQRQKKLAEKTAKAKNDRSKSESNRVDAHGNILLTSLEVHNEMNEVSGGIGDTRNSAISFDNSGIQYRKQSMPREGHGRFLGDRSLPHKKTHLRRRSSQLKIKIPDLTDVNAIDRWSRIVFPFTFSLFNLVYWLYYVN
Experimental: as §1, §2

α1β3γ2L GABAA receptors = biological target: T4, α1β3γ2L GABAA receptors (UniProt P22723+P28472+P62813); assay: Patch-clamp of recombinant α1β3γ2L GABAAR in HEK293 cells; assay type: cell-based, rat α1, human β3, mouse γ2L
T4 construct: expressed in transfected cells; host or cells: HEK293
T4 sequence (P62813 28-455): as the sequence (P62813 28-455) above
T4 sequence (P28472 26-473): as the sequence (P28472 26-473) above
T4 sequence (P22723 39-474): as the sequence (P22723 39-474) above
Experimental: as §1, §2

HDC−/− mice = assay: Polygraphic (EEG/EMG) sleep-wake recording in histamine-deficient mice; assay type: in vivo, mouse
Experimental: (§3) Animal experiments were conducted according to the Animal Protection Law of the Federal Republic of Germany and the local guidelines (Bezirksregierung Duesseldorf) and were in accordance with the European Communities Council directive regarding care and use of animals for experimental procedures (86/609/EEC). The general protocol of sleep-wake recording and experiment in the mouse was approved by the ethic committee of Claude Bernard University of Lyon. All efforts were made to minimize the number of animals and their suffering. At the age of 12 weeks and with a body weight of 30±2 g HDC wild type and knockout mice used for EEG and sleep-wake studies were chronically implanted, under deep gas anesthesia using isoflurane (2%, 200 ml/min) and a TEM anesthesia system (Bordeaux, France), with six cortical electrodes (gold-plated tinned copper wire, Ø = 0.4 mm, Filotex, Draveil, France) and three neck muscle electrodes (fluorocarbon-coated gold-plated stainless steel wire, Ø = 0.03 mm, Cooner Wire Chatworth, CA, U.S.A.) to record the electroencephalogram (EEG) and electromyogram (EMG) and to monitor the sleep-wake cycle. Finally, the electrode assembly was anchored and fixed to the skull with Super-Bond (Sun Medical Co., Shiga, Japan) and dental cement. This implantation allows stable and long-lasting polygraphic recordings.
(§4) After surgery, the animals were housed individually in barrels placed in an insulated sound-proof recording room maintained at an ambient temperature of 22±1°C and on a 12 h light/dark cycle (lights-on at 7 a.m.), standard food and water being available ad libitum. After a 7-days recovery period, mice were habituated to the recording cable for 7 days before polygraphic recordings were started. Cortical EEG (contralateral frontoparietal leads) and EMG signals were amplified, digitized with a resolution of 256 and 128 Hz, respectively, and computed on a CED 1401 Plus (Cambridge, UK). Using a Spike2 script and with the assistance of spectral analysis using the fast Fourier transform, polygraphic records were visually scored by 30-sec epochs for wakefulness (W), slow wave sleep (SWS), and paradoxical sleep (PS) according to previously described criteria validated for mice.
(§5) Animals were subjected to 12 h sleep-wake recordings following administration of URSOFALK (clinically used UDCA, 32 mg/kg) through the oral route (per os) at 10 a.m. (during the sleepy period) or at 7 p.m. (during the active period). Each animal received twice single dose of UDCA and twice equal volume of vehicle. There was an interval of 7 days between any two administrations. UDCA or vehicle was applied at random. The waking, slow wave sleep or paradoxical sleep amounts were compared between vehicle and UCDA within the same animal, the differences being averaged within the groups. […]

[2] = tested on: cultured hypothalamic neurons; assay: Microelectrode array (MEA) recordings of cultured hypothalamic neurons; assay type: cell-based, mouse
Experimental: Primary dissociated cultures of posterior hypothalamus were prepared from newborn mice according to the protocols previously described, [43]. […] Recordings were done between 11th-21st day after plating. […] Signals from all 60 electrodes were simultaneously sampled at 25 kHz, visualized and stored using the standard software […] provided by Multi Channel Systems. Spike detection and analysis was performed offline with the software […] (RESULT Medizinische […], Germany), which uses the agreement coefficient “Cohen's kappa” (κ) to assess the degree of spike and burst synchrony for selected pairs of electrodes. […] In order to describe the distribution of kappa across the whole MEA, we calculated the mean of all kappa-values obtained for pairs of “active” electrodes. At the beginning of experiments the basal medium was replaced by a magnesium-free HEPES-based recording solution (see above) and measurements were started after a 20 min adaptation phase. Every measurement comprised three recordings - control, test substance and washout (second control) - each two minutes long and separated by an intermediate period of 30 seconds.

[3] = biological target: T5, homopentameric β3 GABAA receptors (Homo sapiens, UniProt P28472); assay: Patch-clamp of β3 homopentameric receptors in HEK293 cells, histamine-evoked currents; assay type: cell-based; settings: histamine 5 mM
T5 construct: expressed in transfected cells; host or cells: HEK293
T5 sequence (P28472 26-473): as the sequence (P28472 26-473) above
Experimental: as §1, §2

HDC+/+ mice = assay: Polygraphic (EEG/EMG) sleep-wake recording in wild type mice; assay type: in vivo, mouse
Experimental: as §3, §4, §5

[4] = read-out: IC50 of block of histamine-evoked currents
[5] = read-out: IC50 of block of GABA-evoked steady-state currents
[6] = UDCA 32 mg/kg per os at 7 p.m., vs vehicle

T1 sequence (P28472 26-473): as above
T1 sequence (P22723 39-474): as the sequence (P22723 39-474) above

**Q.** For `C[C@H](CCC(=O)O)[C@H]1CC[C@H]2[C@@H]3[C@@H](O)C[C@@H]4C[C@H](O)CC[C@]4(C)[C@H]3CC[C@]12C` [UDCA, ursodeoxycholic acid], which “Hill coefficient nH of UDCA block” value (β3γ2L GABAA receptors) is on record?
**A.** The value was 0.62.

**Q.** And the IC50 (β3γ2L GABAA receptors; [4])?
**A.** Its IC50 is 232 ± 66 µM.

**Q.** And the “access to the CNS” value [1]?
**A.** Its value is “reaches the CNS”.

**Q.** And the IC50 (α1β1γ2L GABAA receptors)?
**A.** The IC50 was 96 ± 17 µM.

**Q.** And the “Hill coefficient nH of UDCA block” value (α1β3 GABAA receptors; maximal GABA)?
**A.** Its value is 0.65.

**Q.** And the IC50 (α1β3 GABAA receptors; [5])?
**A.** The IC50 was 81 µM.

**Q.** What about the “Hill coefficient nH of UDCA block” value (α1β3γ2L GABAA receptors; maximal GABA) of the same molecule?
**A.** Its value is 0.63.

**Q.** What about the IC50 (α1β3γ2L GABAA receptors; [5]) of the same molecule?
**A.** Its IC50 is 73 µM.

**Q.** What about the sleep wake states (HDC−/− mice; 32 mg/kg orally at 10 a.m. (quiet period), n = 7) of the same molecule?
**A.** Its sleep wake states is “did not affect”.

**Q.** And the “slow wave sleep (SWS) and paradoxical sleep (PS)” value (HDC−/− mice; [6])?
**A.** The value was “tended to be increased”.

**Q.** What about the total sleep (HDC−/− mice; [6]) of the same molecule?
**A.** Its total sleep is “increased”.

**Q.** What about the waking (HDC−/− mice; [6]) of the same molecule?
**A.** Its waking is “significantly decreased”.

**Q.** And the “synchronicity of firing within the hypothalamic network (Cohen's kappa)” value ([2]; UDCA)?
**A.** Its value is “increased”.

**Q.** And the firing frequency ([2]; UDCA 10, 30 or 100 µM)?
**A.** The firing frequency was “not affected”.

**Q.** What about the “effect on synchronization in the presence of gabazine” value ([2]; with GABAA receptor antagonist gabazine) of the same molecule?
**A.** The value was “abolished”.

**Q.** What about the “UDCA-induced synchronization of firing with mifepristone and spironolactone” value ([2]; with mifepristone 10 µM and spironolactone 10 µM) of the same molecule?
**A.** Its value is “not affected”.

**Q.** What about the “Hill coefficient nH of UDCA block” value [3] of the same molecule?
**A.** Its value is 0.8.

**Q.** What about the IC50 [3, 4] of the same molecule?
**A.** The IC50 was 7.4 ± 2 µM.

**Q.** And the sleep wake states (HDC+/+ mice; 32 mg/kg orally at 10 a.m. (quiet period))?
**A.** Its sleep wake states is “did not affect”.

**Q.** And the waking (HDC+/+ mice; UDCA 32 mg/kg per os at 7 p.m. (active period), vs vehicle, n = 11)?
**A.** Its waking is “significantly increased”.

**Q.** And the “amount of paradoxical sleep (PS)” value (HDC+/+ mice; [6])?
**A.** Its value is “decreased”.

**Q.** And the “amount of slow wave sleep (SWS)” value (HDC+/+ mice; [6])?
**A.** The value was “decreased”.
